Measured values taken from paper PMC3234597, “Two Panels of Steroid Receptor Luciferase Reporter Cell Lines for Compound Profiling” (Combinatorial Chemistry & High Throughput Screening, 2011).
“Also recorded” adds a separate entry of the source. Like-named read-outs stand apart in the source and are kept apart here.

How the values were obtained:
Type in all cases: cell-based
[1] = biological target: T1, human ERβ (full-length) (Homo sapiens, UniProt Q92731); test: U2OS-ERβ/3xERE luciferase reporter cell line (full-length receptor); conditions: for EC50: read-out: Log EC50 (converted)
T1 construct: expression vectors encoding full-length steroid receptors: pcDNA3-hERα and pcDNA3-ERβ; expressed in transfected cells; host or cells: U2OS
T1 sequence (Q92731 whole entry): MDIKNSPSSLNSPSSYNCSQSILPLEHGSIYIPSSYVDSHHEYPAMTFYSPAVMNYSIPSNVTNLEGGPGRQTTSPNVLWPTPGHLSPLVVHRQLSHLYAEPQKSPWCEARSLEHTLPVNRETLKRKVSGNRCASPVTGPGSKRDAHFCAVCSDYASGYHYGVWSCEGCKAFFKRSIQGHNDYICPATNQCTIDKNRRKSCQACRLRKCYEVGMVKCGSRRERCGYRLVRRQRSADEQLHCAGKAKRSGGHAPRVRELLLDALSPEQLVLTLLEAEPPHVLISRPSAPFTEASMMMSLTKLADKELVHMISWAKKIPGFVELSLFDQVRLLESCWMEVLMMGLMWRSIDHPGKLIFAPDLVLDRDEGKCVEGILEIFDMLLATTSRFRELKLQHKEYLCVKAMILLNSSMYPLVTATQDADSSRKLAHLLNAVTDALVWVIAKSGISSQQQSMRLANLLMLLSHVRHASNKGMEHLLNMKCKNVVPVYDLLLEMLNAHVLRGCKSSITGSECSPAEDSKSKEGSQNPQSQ

[2] = biological target: T2, ERβ-LBD fused to Gal4-DBD (Homo sapiens, UniProt Q92731); test: U2OS-ERβ-LBD/9xGal4UAS luciferase reporter cell line; conditions: for EC50: read-out: Log EC50 (converted)
T2 construct: region comprising ERβ-LBD and a piece of the hinge region; expressed in transfected cells; host or cells: U2OS
T2 sequence (Q92731 264-498 limits assumed): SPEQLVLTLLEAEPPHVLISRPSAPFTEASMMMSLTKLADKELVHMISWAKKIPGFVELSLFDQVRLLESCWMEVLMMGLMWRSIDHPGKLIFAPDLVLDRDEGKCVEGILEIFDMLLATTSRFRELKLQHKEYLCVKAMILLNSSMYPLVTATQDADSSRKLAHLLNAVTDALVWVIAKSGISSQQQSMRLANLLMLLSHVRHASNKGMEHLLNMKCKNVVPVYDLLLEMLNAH

[3] = biological target: T3, human AR (full-length) (Homo sapiens, UniProt P10275); test: U2OS-AR/3xGRE luciferase reporter cell line (full-length receptor); conditions: for Log EC50: agonist mode, 20 h, log10 of molar EC50, mean ± SEM; for Log EC50 / Log IC50: AR/3xGRE; for Log IC50: antagonist mode, in the presence of 0.05 nM dihydrotestosterone, log10 of molar IC50, mean ± SEM
T3 construct: expression vectors encoding full-length steroid receptors: pcDNA3-hAR and pcDNA3-hGR; host or cells: U2OS
T3 sequence (P10275 1-920): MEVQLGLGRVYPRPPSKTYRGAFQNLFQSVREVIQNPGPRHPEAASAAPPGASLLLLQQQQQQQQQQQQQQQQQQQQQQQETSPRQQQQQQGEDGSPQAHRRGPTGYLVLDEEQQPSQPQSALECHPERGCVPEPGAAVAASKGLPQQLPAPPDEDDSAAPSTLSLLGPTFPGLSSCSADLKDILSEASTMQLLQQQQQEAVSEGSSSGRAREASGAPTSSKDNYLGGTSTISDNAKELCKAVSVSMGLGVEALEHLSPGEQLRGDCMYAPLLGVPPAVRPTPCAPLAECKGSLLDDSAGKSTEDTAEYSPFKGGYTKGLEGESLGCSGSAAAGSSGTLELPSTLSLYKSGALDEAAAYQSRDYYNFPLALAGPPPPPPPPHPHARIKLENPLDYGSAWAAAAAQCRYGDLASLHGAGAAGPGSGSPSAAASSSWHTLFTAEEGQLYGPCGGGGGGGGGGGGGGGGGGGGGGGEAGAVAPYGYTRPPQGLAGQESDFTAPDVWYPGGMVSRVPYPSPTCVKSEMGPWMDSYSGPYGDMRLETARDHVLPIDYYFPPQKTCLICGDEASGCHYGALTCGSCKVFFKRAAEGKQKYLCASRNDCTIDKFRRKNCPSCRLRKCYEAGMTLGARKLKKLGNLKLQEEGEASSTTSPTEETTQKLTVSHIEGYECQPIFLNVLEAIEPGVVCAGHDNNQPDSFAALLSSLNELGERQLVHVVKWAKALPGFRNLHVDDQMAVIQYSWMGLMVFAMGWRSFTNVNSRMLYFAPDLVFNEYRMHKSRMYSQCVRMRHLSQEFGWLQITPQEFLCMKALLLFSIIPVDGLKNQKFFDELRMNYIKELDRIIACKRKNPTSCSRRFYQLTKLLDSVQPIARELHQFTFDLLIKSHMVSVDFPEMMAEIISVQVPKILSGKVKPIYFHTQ

[4] = biological target: T3, human AR (full-length); test: U2OS-AR/MMTV luciferase reporter cell line (full-length receptor); conditions: for Log EC50: agonist mode, 20 h, log10 of molar EC50, mean ± SEM; for Log EC50 / Log IC50: AR/MMTV; for Log IC50: antagonist mode, in the presence of 0.05 nM dihydrotestosterone, log10 of molar IC50, mean ± SEM
[5] = biological target: T4, human GR (full-length) (Homo sapiens, UniProt P04150); test: U2OS-GR/MMTV luciferase reporter cell line (full-length receptor); conditions: for Log EC50: agonist mode, 20 h, log10 of molar EC50, mean ± SEM; for Log EC50 / Log IC50: GR/MMTV; for Log IC50: antagonist mode, in the presence of 5 nM dexamethasone, log10 of molar IC50, mean ± SEM
T4 construct: expression vectors encoding full-length steroid receptors: pcDNA3-hAR and pcDNA3-hGR; host or cells: U2OS
T4 sequence (P04150 1-777): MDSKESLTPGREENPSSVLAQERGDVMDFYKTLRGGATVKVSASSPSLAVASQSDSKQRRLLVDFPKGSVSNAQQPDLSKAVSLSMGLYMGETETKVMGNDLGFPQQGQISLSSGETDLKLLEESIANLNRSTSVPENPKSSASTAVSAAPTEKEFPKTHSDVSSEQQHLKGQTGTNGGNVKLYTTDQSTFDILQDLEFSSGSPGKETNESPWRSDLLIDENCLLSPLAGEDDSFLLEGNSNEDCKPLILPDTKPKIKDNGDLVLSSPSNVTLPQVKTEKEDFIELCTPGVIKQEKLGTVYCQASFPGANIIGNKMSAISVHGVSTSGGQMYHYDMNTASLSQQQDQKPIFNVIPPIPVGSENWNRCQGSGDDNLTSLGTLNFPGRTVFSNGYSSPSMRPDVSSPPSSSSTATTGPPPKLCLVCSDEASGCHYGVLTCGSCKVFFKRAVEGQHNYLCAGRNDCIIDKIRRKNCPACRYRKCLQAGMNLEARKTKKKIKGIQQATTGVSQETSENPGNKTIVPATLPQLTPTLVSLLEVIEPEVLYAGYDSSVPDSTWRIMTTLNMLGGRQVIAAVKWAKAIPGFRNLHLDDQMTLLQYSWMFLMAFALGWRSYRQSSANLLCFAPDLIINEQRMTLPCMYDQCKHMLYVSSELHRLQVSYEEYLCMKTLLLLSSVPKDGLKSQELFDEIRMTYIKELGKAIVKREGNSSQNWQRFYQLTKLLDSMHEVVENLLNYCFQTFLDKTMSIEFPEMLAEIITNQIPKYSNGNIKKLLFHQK

[6] = biological target: T5, MR-LBD fused to Gal4-DBD (Homo sapiens, UniProt P08235); test: U2OS-MR-LBD/9xGal4UAS luciferase reporter cell line; conditions: for Log EC50: agonist mode, 20 h, log10 of molar EC50, mean ± SEM; for Log EC50 / Log IC50: MR-LBD/9xGal4UAS; for Log IC50: antagonist mode, in the presence of 1 nM aldosterone, log10 of molar IC50, mean ± SEM
T5 construct: MR-LBD was cloned by RT-PCR from total RNA isolated from HEK293 cells; expressed in transfected cells; host or cells: U2OS
T5 sequence (P08235 726-964 limits assumed): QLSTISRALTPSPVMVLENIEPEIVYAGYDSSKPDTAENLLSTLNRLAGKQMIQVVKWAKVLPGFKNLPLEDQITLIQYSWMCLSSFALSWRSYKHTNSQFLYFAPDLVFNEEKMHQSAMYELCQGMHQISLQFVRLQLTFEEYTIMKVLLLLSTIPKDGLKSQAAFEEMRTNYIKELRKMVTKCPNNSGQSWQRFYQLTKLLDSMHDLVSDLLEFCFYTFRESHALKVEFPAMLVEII

[7] = biological target: T6, PR-LBD fused to Gal4-DBD (Homo sapiens, UniProt P06401); test: U2OS-PR-LBD/9xGal4UAS luciferase reporter cell line; conditions: for Log EC50: agonist mode, 20 h, log10 of molar EC50, mean ± SEM
T6 construct: PR-LBD region was PCR amplified using the following primer combination; host or cells: U2OS
T6 sequence (P06401 679-913 limits assumed): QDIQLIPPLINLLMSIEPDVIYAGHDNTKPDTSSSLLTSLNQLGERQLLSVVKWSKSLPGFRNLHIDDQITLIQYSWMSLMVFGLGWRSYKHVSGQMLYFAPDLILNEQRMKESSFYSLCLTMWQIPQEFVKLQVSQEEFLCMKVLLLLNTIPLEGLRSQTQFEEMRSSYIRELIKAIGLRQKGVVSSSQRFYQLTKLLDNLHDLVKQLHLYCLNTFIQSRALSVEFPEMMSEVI

[8] = antagonist mode, PR-LBD/9xGal4UAS, log10 of molar IC50, mean ± SEM, read-out: Log IC50 (converted)
[9] = antagonist mode, PR-LBD/9xGal4UAS, log10 of molar IC50, mean ± SEM

SMILES | EC50 [1] [µM] | EC50 [2] [µM] | EC50 [3] [µM] | EC50 [4] [µM] | EC50 ([5]; read-out: Log EC50 (converted)) [µM] | EC50 ([6]; read-out: Log EC50 (converted)) [µM] | IC50 [7, 8] [µM] | EC50 ([7]; read-out: Log EC50 (converted)) [nM] | Log EC50 [6] [M] | Log IC50 [6] [M] | Log EC50 ([7]; PR-LBD/9xGal4UAS) [M] | Log IC50 [7, 9] [M] | further results
CCC(=O)[C@@]1(C)CC[C@H]2[C@@H]3CCC4=CC(=O)CCC4=C3CC[C@@]21C [Promegestone (R5020), promegestone] | > 10 | > 10 | > 10 | > 10 | > 10 | > 10 | > 10 | 0.0129 | – | – | – | – | IC50 [4]: 0.0126 µM
C#C[C@]1(O)CC[C@H]2[C@@H]3CCC4=Cc5oncc5C[C@]4(C)[C@H]3CC[C@@]21C [Danazol, danazol] | > 10 | > 10 | – | – | > 10 | > 10 | 0.692 | 91.2 | – | – | – | – | –
O=c1c(-c2ccc(O)cc2)coc2cc(O)cc(O)c12 [Genistein, genistein] | – | – | > 10 | > 10 | – | – | – | – | – | – | – | – | EC50 [5]: > 10 µM; EC50 [6]: > 10 µM; EC50 [7]: > 10000 nM; IC50 [7]: > 10 µM
CC[C@@H]1Cc2cc(O)ccc2C2=C1c1ccc(O)cc1C[C@H]2CC (relative stereo) [R.R-THC, (R,R)-cis-diethyltetrahydro-2,8-chrysenediol] | – | – | – | – | – | – | – | – | > -5.00 | -5.08 ± 0.13 | > -5.00 | -5.52 ± 0.70 | Log EC50 ([1]; agonist mode, ERβ/3xERE, 20 h, log10 of molar EC50, mean ± SEM): > -5.00 M; Log IC50 ([1]; antagonist mode, ERβ/3xERE, in the presence of 1 nM E2, log10 of molar IC50, mean ± SEM): -7.30 ± 0.14 M; Log EC50 ([2]; agonist mode, ERβ-LBD/9xGal4UAS, 20 h, log10 of molar EC50, mean ± SEM): > -5.00 M; Log IC50 ([2]; antagonist mode, ERβ-LBD/9xGal4UAS, in the presence of 5 nM E2, log10 of molar IC50, mean ± SEM): -7.39 ± 0.15 M; Log EC50 [3]: > -5.00 M; Log IC50 [3]: -5.26 ± 0.28 M; Log EC50 [4]: > -5.00 M; Log IC50 [4]: -5.22 ± 1.26 M; Log EC50 [5]: > -5.00 M; Log IC50 [5]: > -5.00 M
C[C@]12CC[C@@H]3c4ccc(O)cc4C[C@@H](CCCCCCCCC[S+]([O-])CCCC(F)(F)C(F)(F)F)[C@H]3[C@@H]1CC[C@@H]2O (stereo partly drawn) [ICI 182.780] | – | – | – | – | – | – | – | – | > -5.00 | > -5.00 | > -5.00 | > -5.00 | Log EC50 [3]: > -5.00 M; Log IC50 [3]: > -5.00 M; Log EC50 [4]: > -5.00 M; Log IC50 [4]: > -5.00 M; Log EC50 [5]: > -5.00 M; Log IC50 [5]: > -5.00 M
C[C@]12C[C@H](O)[C@H]3[C@@H](CCC4=CC(=O)CC[C@@]43C)[C@@H]1CC[C@@H]2C(=O)CO [Corticosterone, corticosterone] | > 10 | > 10 | – | – | 0.0269 | 2.63e-05 | > 10 | 72.4 | – | – | – | – | –
C[C@H]1C[C@H]2[C@@H]3CCC4=CC(=O)C=C[C@]4(C)[C@@]3(Cl)[C@@H](O)C[C@]2(C)[C@@]1(O)C(=O)CO [Beclomethasone, beclomethasone] | – | – | – | – | – | – | – | – | -7.95 ± 0.10 | -7.64 ± 0.10 | -5.20 ± 0.05 | > -5.00 | activity profile in words ([6]; MR-LBD expressing reporter cell line, agonist and antagonist mode): only weakly and partially activated; also recorded: pronounced full antagonist effect
C[C@]12CCC(=O)C=C1CC[C@@H]1[C@@H]2[C@@H](O)C[C@]2(C=O)[C@@H](C(=O)CO)CC[C@@H]12 [Aldosterone, aldosterone] | > 10 | > 10 | > 10 | > 10 | 0.209 | – | 3.72 | 1120 | – | – | – | – | –
CCCc1c(-c2ccc(O)cc2)nn(-c2ccc(O)cc2)c1-c1ccc(O)cc1 [PPT, propyl pyrazole triol] | > 10 | > 10 | > 10 | > 10 | > 10 | > 10 | > 10 | 4270 | – | – | – | – | –
C[C@]12C=CC(=O)C=C1CC[C@H]1[C@@H]3C[C@@H](O)[C@](O)(C(=O)CO)[C@@]3(C)C[C@H](O)[C@@]12F [Triamcinolone, triamcinolone] | – | – | – | – | 0.0129 | 0.0759 | > 10 | 58.9 | – | – | – | – | –
